Experimental data from patent US20230405063A1, “USE OF PROBIOTIC COMPONENT AND PHARMACEUTICAL COMPOSITION CONTAINING PROBIOTIC COMPONENT” (CHENGDU KUACHANGAOPU MEDICAL TECHNOLOGY CO., LTD., priority 2020, published 2023).

Tests used:
breast cancer 4T1 cells [1] = assay: Tumor incidence rate after 4T1 cell transplantation (S4T1) on day 30 (Example 12, Table 18); assay type: in vivo, BALB/c mice; settings: cells transplanted on 30th day, observed 10th day after transplantation; for Series A S4T1 (tumor incidence rate of 4T1 cell transplantation): series A modeled mice, intratumoral injection; for Series B S4T1 (tumor incidence rate of 4T1 cell transplantation): series B unmodeled mice, intramuscular injection into right hind thigh
Experimental: (§1) BALB/c mice were used as experimental subjects, in which modeled animals were used as series A and unmodeled animals as series B. […] The modeled animals were randomly divided into 18 groups, with 10 animals in each group, and the drugs according to Table 18 was administered via intratumoral injection. BALB/c mice were additionally taken as experimental subjects without modeling, and randomly divided into 18 groups, with 10 animals in each group, the drugs according to Table 18 was administered via intramuscular injection into the right hind thigh. All the study drugs comprising probiotic components were formulated as aqueous formulations according to the preparation method of Example 1, and the other drugs were formulated as aqueous solutions according to the existing well-known methods. Each group was administered twice at an interval of 3 days, and the dosage was 50 ul/mouse/time.

[2] = tested on: human liver cancer HepG2 cells; assay: Tumor inhibition in HepG2 tumor-bearing nude mice (Example 2, Table 4); assay type: in vivo; settings: for Tumor weight (x ± s) / Tumor inhibition rate r: dosed once, 150 μl/mouse; for Tumor weight (x ± s): 7th day after administration; for Tumor inhibition rate r: 7th day, relative to negative control; for Ratio of tumor inhibition rates, intratumoral group / intravenous group of the same drug (E7/E1, E8/E2, E10/E4): same drug and dose, local vs systemic administration
Experimental: The tumor-bearing nude mice were widely used for drug studies on chemotherapy rather than immunotherapy in patients with solid tumors. Taking nude mice as experimental subjects, human liver cancer HepG2 cells were used as modeling cells, and 1×10^5 cells/mouse were injected into the right axilla subcutaneously for transplantation tumor modeling, and the average tumor volume of successfully modeled nude mice was 161.3 mm^3. The model animals were randomly divided into 17 groups. The drugs were administered according to the drug and dosing method in Table 4. Each group was dosed once with an injection volume of 150 μl/mouse. On the 7th day after drug administration, the animals were euthanized, and after dissection, the tumor tissue was taken out to determine the tumor weight, and the tumor inhibition rate (r) was calculated relative to the negative control group.

fibroblast 3T3 cells = assay: Tumor incidence rate after 3T3 cell transplantation (S3T3) on day 30 (Example 12, Table 18); assay type: in vivo, BALB/c mice; settings: cells transplanted on 30th day, observed 10th day after transplantation; for Series A S3T3 (tumor incidence rate of 3T3 cell transplantation): series A modeled mice, intratumoral injection; for Series B S3T3 (tumor incidence rate of 3T3 cell transplantation): series B unmodeled mice, intramuscular injection into right hind thigh
Experimental: as §1

breast cancer 4T1 cells [3] = assay: Short- and medium/long-term relative tumor proliferation rate in 4T1 tumor-bearing BALB/c mice (Example 10, Table 16); assay type: in vivo; settings: intratumoral injection, dosed twice at interval of 7 days, 100 μl/mouse/time; for relative tumor proliferation rate R7 d: day 7 after last dose; for relative tumor proliferation rate R21 d: day 21 after last dose
Text: (§2) V=0.5×a×b^2, wherein a and b represent the length and width of the local lesion, respectively; Volume of the local lesion (e.g. tumor):
(§3) Local lesion (e.g., tumor) proliferation rate (R)=TV/CV×100, wherein TV and CV are the local lesion volumes in the study group and negative control group, respectively;
(§4) The method for determining the effect of combined drug administration in animal experiments was Burgi method (Burgi Y. Pharmacology; Drug actions and reactions. Cancerres. 1978, 38(2), 284-285). The Burgi method was modified by Zhengjun JIN (Zhengjun JIN, Equal probability and curve and “Q50”, Journal of the Second Shanghai Medical College; 1981, 1, 75-86) with q calculated as: q=EA+B/(EA+EB−EA×EB). In the following examples of the present invention, the combinational pharmaceutical efficacies (drug efficacies) of drug A and drug B co-administration was determined by ratio q of actual pharmaceutical efficacy (drug efficacy)/theoretical pharmaceutical efficacy (drug efficacy) according to Zhengjun JIN method, as follows.
BALB/c mice were used as experimental subjects, and breast cancer 4T1 cells were used as modeling cells. 0.5×10^6 cells/mouse were injected into the right axilla subcutaneously for transplantation tumor modeling, and the average tumor volume of successfully modeled nude mice was 107.4 mm^3. The model animals were randomly divided into 17 groups.
The drugs, formulated according to the method of Example 1, were administered according to Table 16. Each group was dosed twice with an interval of 7 days, and the injection volumes were 300 μl/mouse/time for groups 13 and 14, 100 μl/mouse/time for other groups. The drugs were administered by subaxillary administration of the right forelimb for group 15, and by intratumoral injection for other groups. Group 16 was administered sequentially (the first dose was aprobiotic semi-fluid-like component/cytotoxic drug/weak local acting compound, and the last dose was inactivated probiotics), while the other groups were administered with the same drug twice. On days 7 and 21 after the last dose, the tumor volumes of each group were measured (V7d, V21d), and the relative tumor proliferation rates (R7d, R21d) were calculated relative to the negative control group, respectively, so that the short-term therapeutic effectiveness (100%−R7d) and the medium- and long-term therapeutic effectiveness (100%−R21d) could be calculated, respectively.

[4] = tested on: mouse embryonic fibroblasts 3T3; assay: Local lesion inhibition in 3T3 fibroblast nodule model in nude mice (Example 6, Table 9); assay type: in vivo; settings: dosed twice at interval of 2 days, 150 μl/mouse/time, 7th day after final administration; for V (x ± s), volume of local lesions, series B / relative local lesion inhibition rate r′B: intra-nodal injection; for V (x ± s), volume of local lesions, series A / relative local lesion inhibition rate r′A: intraperitoneal injection
Text: as §2, §3, §4
Nude mice were used as experimental subjects, and mouse embryonic fibroblasts 3T3 were used as modeling cells. 2×10^4 cells/mouse were injected into the right axilla subcutaneously for transplantation nodule modeling, and the average volume of tumor-like nodules in successfully modeled nude mice was 171.5 mm^3. The model animals were randomly divided into […], and the drugs were administered according to Table 9. Each group except for groups 21-24 were administered by intraperitoneal injection, intra-nodal injection. The drugs used in groups 21-24 were a composition of non-local administration dosage form (dosage form that a probiotic component and a co-administration substance could be administered separately). The administration route of series A was: intraperitoneal injection of probiotic component+intra-nodal injection of co-administration substance; and the administration route of series B was: intraperitoneal injection of co-administration substance+intra-nodal injection of probiotic component. Each group was dosed twice at an interval of 2 days, with an injection volume of 150 μl/mouse/time. On the 7th day after the final administration, the volume (V) of local lesions comprising fibroblasts was measured, and the relative local lesion inhibition rates (r′A, r′B) were calculated for series A and series B, respectively, as compared with the negative control group. Further, the actual drug efficacy/expected efficacy ratio q could also be calculated according to the therapeutic effect (local lesion inhibition rate).

breast cancer 4T1 cells [5] = assay: Short-term tumor inhibition in 4T1 tumor-bearing BALB/c mice (Example 9, Table 14); assay type: in vivo; settings: dosed twice, 7th day after final administration; for tumor inhibition rate rA: series A: intravenous injection; for tumor inhibition rate rB: series B: intratumoral injection
Text: as §4
BALB/c mice were used as experimental subjects, and breast cancer 4T1 cells were used as modeling cells. 0.5×10^6 cells/mouse were injected into the right axilla subcutaneously for transplantation tumor modeling, and the average tumor volume of successfully modeled nude mice was 160.1 mm^3. The model animals were randomly divided into 21 groups, and the drugs were administered by intravenous injection (series A) and intratumoral injection (series B) according to the drugs and doses in Table 14, respectively. All the drugs administered were aqueous liquids, which were formulated according to the method of Example 1. Each group was dosed twice. On the 7th day after final administration, the animals were euthanized, and the tumor tissues were taken out after dissection to determine the tumor weight, and the tumor inhibition rates rA and rB were calculated relative to the corresponding negative control groups in series A and series B.

In the case of `O=c1[nH]cc(F)c(=O)[nH]1` [1% 5-fluorouracil, 5-fluorouracil], the “Series A S4T1 (tumor incidence rate of 4T1 cell transplantation)” value (breast cancer 4T1 cells [1]) was 100%, the “Series B S4T1 (tumor incidence rate of 4T1 cell transplantation)” value (breast cancer 4T1 cells [1]) was 100% and the “Tumor weight (x ± s)” value ([2]; intratumoral injection) was 0.133 ± 0.094 g. For the same compound, the “Tumor inhibition rate r” value ([2]; intratumoral injection) was 49.5%, the “Tumor weight (x ± s)” value ([2]; intravenous injection) was 0.139 ± 0.094 g and the “Tumor inhibition rate r” value ([2]; intravenous injection) was 42.3%. For the same compound, the “Ratio of tumor inhibition rates, intratumoral group / intravenous group of the same drug (E7/E1, E8/E2, E10/E4)” value [2] was less than 200%, the “Series A S3T3 (tumor incidence rate of 3T3 cell transplantation)” value (fibroblast 3T3 cells) was 100% and the “Series B S3T3 (tumor incidence rate of 3T3 cell transplantation)” value (fibroblast 3T3 cells) was 100%. The “relative tumor proliferation rate R7 d” value (breast cancer 4T1 cells [3]) was 51%, the “relative tumor proliferation rate R21 d” value (breast cancer 4T1 cells [3]) was 93% and the “V (x ± s), volume of local lesions, series B” value [4] was 1.226 ± 0.217 cm^3. For the same compound, the “relative local lesion inhibition rate r′B” value [4] was 14.3%, the “V (x ± s), volume of local lesions, series A” value [4] was 1.225 ± 0.211 cm^3 and the “relative local lesion inhibition rate r′A” value [4] was 9.7%. The “tumor inhibition rate rA” value (breast cancer 4T1 cells [5]) was 38.1% and the “tumor inhibition rate rB” value (breast cancer 4T1 cells [5]) was 44.1%.
With `CCO` [75% ethanol, ethanol] the “Series A S4T1 (tumor incidence rate of 4T1 cell transplantation)” value (breast cancer 4T1 cells [1]) was 100%, the “Series B S4T1 (tumor incidence rate of 4T1 cell transplantation)” value (breast cancer 4T1 cells [1]) was 100% and the “Tumor weight (x ± s)” value ([2]; intratumoral injection) was 0.122 ± 0.085 g. For the same compound, the “Tumor inhibition rate r” value ([2]; intratumoral injection) was 53.6%, the “Tumor weight (x ± s)” value ([2]; intravenous injection) was 0.226 ± 0.113 g and the “Tumor inhibition rate r” value ([2]; intravenous injection) was 6.1%. For the same compound, the “Ratio of tumor inhibition rates, intratumoral group / intravenous group of the same drug (E7/E1, E8/E2, E10/E4)” value [2] was greater than 200%, the “Series A S3T3 (tumor incidence rate of 3T3 cell transplantation)” value (fibroblast 3T3 cells) was 100% and the “Series B S3T3 (tumor incidence rate of 3T3 cell transplantation)” value (fibroblast 3T3 cells) was 100%. For the same compound, the “relative tumor proliferation rate R7 d” value (breast cancer 4T1 cells [3]) was 47%, the “relative tumor proliferation rate R21 d” value (breast cancer 4T1 cells [3]) was 95% and the “V (x ± s), volume of local lesions, series B” value [4] was 1.078 ± 0.221 cm^3. For the same compound, the “relative local lesion inhibition rate r′B” value [4] was 24.7%, the “V (x ± s), volume of local lesions, series A” value [4] was 1.300 ± 0.197 cm^3 and the “relative local lesion inhibition rate r′A” value [4] was 4.2%. The “tumor inhibition rate rA” value (breast cancer 4T1 cells [5]) was 2.8% and the “tumor inhibition rate rB” value (breast cancer 4T1 cells [5]) was 21.3%.
